Reference: patent US20100298141A1, “SUBSTITUTED PYRIDINE N-OXIDE HERBICIDES” (E. I. DU PONT DE NEMOURS AND COMPANY, priority 2007, published 2010)

How the values were obtained:
johnsongrass = assay: Test C pre-/postemergence test; type: in vivo, Sorghum halepense; details: for Plant response rating (0 to 100), Johnsongrass: 250 g ai/ha
Summary of the method: (§1)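 Seeds were planted and treated preemergence with test chemical in a non-phytotoxic solvent mixture containing surfactant. Postemergence applications of the same formulation went onto plants 2 to 18 cm tall (1- to 4-leaf stage). A dash marks no test result.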

redroot pigweed = assay: Test A pre-/postemergence greenhouse test; type: in vivo, Amaranthus retroflexus; details: for Pigweed plant response rating: 0 to 100 scale
Summary of the method: (§2)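 Pre: directed soil spray on seeded loam/sand. Post: foliar spray, plants 2–10 cm, 1–2 leaf stage, applied concurrently. Vehicle: non-phytotoxic solvent + surfactant. Greenhouse ~10 d; visual injury rating vs untreated controls.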

kochia = assay: Test C pre-/postemergence test; type: in vivo, Kochia scoparia
Summary of the method: as §1

duck salad = assay: Test C flooded paddy test; type: in vivo, Heteranthera limosa; details: Flood
Summary of the method: (§3)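 Under a constant 3 cm flood, test compounds went directly into the paddy water. Following 13 to 15 days of greenhouse growth, treated species and controls were compared by eye.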

barnyardgrass = assay: Test A pre-/postemergence greenhouse test; type: in vivo, Echinochloa crus-galli; details: for Barnyardgrass plant response rating: 0 to 100 scale; for Plant response rating, Barnyardgrass: 0 to 100 scale where 0 is no effect and 100 is complete control
Summary of the method: as §2

Surinam grass = assay: Test C pre-/postemergence test; type: in vivo, Brachiaria decumbens
Summary of the method: as §1

downy brome = assay: Test C pre-/postemergence test; type: in vivo, Bromus tectorum; details: for Plant response rating (0 to 100), Bromegrass, Downy: 250 g ai/ha
Summary of the method: as §1

crabgrass = assay: Test C pre-/postemergence test; type: in vivo, Digitaria sanguinalis; details: for Plant response rating (0 to 100), Crabgrass, Large: 250 g ai/ha
Summary of the method: as §1

cocklebur = assay: Test C pre-/postemergence test; type: in vivo, Xanthium strumarium; details: for Plant response rating (0 to 100), Cocklebur: 250 g ai/ha
Summary of the method: as §1

velvetleaf [1] = assay: Test A pre-/postemergence greenhouse test; type: in vivo, Abutilon theophrasti; details: for Velvetleaf plant response rating: 0 to 100 scale; for Plant response rating, Velvetleaf: 0 to 100 scale where 0 is no effect and 100 is complete control
Summary of the method: as §2

wild oat = assay: Test C pre-/postemergence test; type: in vivo, Avena fatua
Summary of the method: as §1

lambsquarters = assay: Test C pre-/postemergence test; type: in vivo, Chenopodium album
Summary of the method: as §1

giant foxtail = assay: Test C pre-/postemergence test; type: in vivo, Setaria faberii; details: for Plant response rating (0 to 100), Foxtail, Giant: 250 g ai/ha
Summary of the method: as §1

rice = assay: Test C flooded paddy test; type: in vivo, Oryza sativa; details: Flood
Summary of the method: as §3

velvetleaf [2] = assay: Test C pre-/postemergence test; type: in vivo, Abutilon theophrasti
Summary of the method: as §1

green foxtail = assay: Test C pre-/postemergence test; type: in vivo, Setaria viridis; details: for Plant response rating (0 to 100), Foxtail, Green: 250 g ai/ha
Summary of the method: as §1

common ragweed = assay: Test C pre-/postemergence test; type: in vivo, Ambrosia elation
Summary of the method: as §1

eastern black nightshade = assay: Test C pre-/postemergence test; type: in vivo, Solanum ptycanthum
Summary of the method: as §1

[3] = 31 g ai/ha, Preemergence, scale 0 to 100
[4] = 62 g ai/ha, preemergence, scale 0 (no effect) to 100 (complete control)
[5] = preemergence, 125 g ai/ha, scale 0 (no effect) to 100 (complete control)
[6] = Postemergence, 125 g ai/ha, 0 is no effect, 100 is complete control
[7] = Postemergence, 500 g ai/ha, 0 is no effect, 100 is complete control
[8] = 31 g ai/ha, scale 0 to 100 (0 no effect, 100 complete control)
[9] = 62 g ai/ha, scale 0 to 100, 0 no effect, 100 complete control, 13 to 15 days
[10] = 125 g ai/ha, scale 0 to 100, 0 no effect, 100 complete control, 13 to 15 days
[11] = 250 g ai/ha, scale 0 to 100 (0 no effect, 100 complete control)
[12] = Preemergence, 125 g ai/ha, 0 no effect, 100 complete control
[13] = 62 g ai/ha, Preemergence, scale 0 to 100
[14] = Preemergence, 31 g ai/ha, scale 0 to 100 (0 no effect, 100 complete control)

Cn1nc(C(F)(F)F)c(C(Cl)S(=O)(=O)c2cccc[n+]2[O-])c1Cl (stereo not shown) [Compound 12]
Johnsongrass plant response rating (johnsongrass; [3]): 0 | Johnsongrass plant response rating (johnsongrass; [4]): 70 | Plant response rating (0 to 100), Johnsongrass (johnsongrass; Preemergence): 100 | Johnsongrass plant response rating (johnsongrass; [5]): 100 | Pigweed plant response rating (redroot pigweed; [6]): 0 | Pigweed plant response rating (redroot pigweed; [7]): 0 | Kochia plant response rating (kochia; [3]): 0 | Kochia plant response rating (kochia; [4]): 0 | Plant response rating (0 to 100), Kochia (kochia; Preemergence, 250 g ai/ha): 80 | Plant response rating, Ducksalad (duck salad; [8]): 40 | Plant response rating, Ducksalad (duck salad; [9]): 95 | Plant response rating, Ducksalad (duck salad; [10]): 100 | Plant response rating, Ducksalad (duck salad; [11]): 100 | Barnyardgrass plant response rating (barnyardgrass; [6]): 50 | Barnyardgrass plant response rating (barnyardgrass; [7]): 60 | Barnyardgrass plant response rating (barnyardgrass; [12]): 90 | Plant response rating, Barnyardgrass (barnyardgrass; Preemergence, 500 g ai/ha): 90 | Surinam Grass plant response rating (Surinam grass; [4]): 0 | Plant response rating (0 to 100), Surinam Grass (Surinam grass; Preemergence, 250 g ai/ha): 40 | Surinam Grass plant response rating (Surinam grass; [5]): 30 | Bromegrass, Downy plant response rating (downy brome; [3]): 0 | Bromegrass, Downy plant response rating (downy brome; [4]): 0 | Plant response rating (0 to 100), Bromegrass, Downy (downy brome; Preemergence): 0 | Bromegrass, Downy plant response rating (downy brome; [5]): 0 | Crabgrass, Large plant response rating (crabgrass; [3]): 100 | Crabgrass, Large plant response rating (crabgrass; [4]): 100 | Plant response rating (0 to 100), Crabgrass, Large (crabgrass; Preemergence): 100 | Crabgrass, Large plant response rating (crabgrass; [5]): 100 | Cocklebur plant response rating (cocklebur; [3]): 0 | Cocklebur plant response rating (cocklebur; [4]): 0 | Plant response rating (0 to 100), Cocklebur (cocklebur; Preemergence): 0 | Cocklebur plant response rating (cocklebur; [5]): 0 | Velvetleaf plant response rating (velvetleaf [1]; [6]): 0 | Velvetleaf plant response rating (velvetleaf [1]; [7]): 0 | Velvetleaf plant response rating (velvetleaf [1]; [12]): 0 | Plant response rating, Velvetleaf (velvetleaf [1]; Preemergence, 500 g ai/ha): 0 | Oat, Wild plant response rating (wild oat; [3]): 0 | Oat, Wild plant response rating (wild oat; [4]): 0 | Plant response rating (0 to 100), Oat, Wild (wild oat; Preemergence, 250 g ai/ha): 0 | Oat, Wild plant response rating (wild oat; [5]): 0 | Lambsquarters plant response rating (lambsquarters; [3]): 0 | Lambsquarters plant response rating (lambsquarters; [4]): 100 | Plant response rating (0 to 100), Lambsquarters (lambsquarters; Preemergence, 250 g ai/ha): 100 | Lambsquarters plant response rating (lambsquarters; [5]): 100 | Foxtail, Giant plant response rating (giant foxtail; [3]): 80 | Foxtail, Giant plant response rating (giant foxtail; [4]): 80 | Plant response rating (0 to 100), Foxtail, Giant (giant foxtail; Preemergence): 100 | Foxtail, Giant plant response rating (giant foxtail; [5]): 80 | Plant response rating, Rice (rice; [8]): 60 | Plant response rating, Rice (rice; [9]): 60 | Plant response rating, Rice (rice; [10]): 70 | Plant response rating, Rice (rice; [11]): 80 | Velvetleaf plant response rating (velvetleaf [2]; [4]): 0 | Plant response rating (0 to 100), Velvetleaf (velvetleaf [2]; Preemergence, 250 g ai/ha): 0 | Velvetleaf plant response rating (velvetleaf [2]; [5]): 0 | Foxtail, Green plant response rating (green foxtail; [3]): 100 | Plant response rating (0 to 100), Foxtail, Green (green foxtail; Preemergence): 100 | Foxtail, Green plant response rating (green foxtail; [5]): 100 | Ragweed plant response rating (common ragweed; [3]): 0 | Ragweed plant response rating (common ragweed; [4]): 0 | Plant response rating (0 to 100), Ragweed (common ragweed; Preemergence, 250 g ai/ha): 20 | Nightshade plant response rating (eastern black nightshade; [3]): 100 | Nightshade plant response rating (eastern black nightshade; [4]): 100 | Plant response rating (0 to 100), Nightshade (eastern black nightshade; Preemergence, 250 g ai/ha): 100 | Nightshade plant response rating (eastern black nightshade; [5]): 100

Cn1nc(C(F)(F)F)c(CS(=O)(=O)c2ccc(Cl)c[n+]2[O-])c1Cl [Compound 18]
Johnsongrass plant response rating (johnsongrass; [13]): 100 | Plant response rating, Johnsongrass (johnsongrass; [14]): 5 | Plant response rating (0 to 100), Johnsongrass (johnsongrass; Preemergence): 100 | Pigweed plant response rating (redroot pigweed; [6]): 0 | Pigweed plant response rating (redroot pigweed; [7]): 60 | Pigweed plant response rating (redroot pigweed; [12]): 90 | Plant response rating, Pigweed (redroot pigweed; Preemergence, 500 g ai/ha, 0 to 100 scale where 0 is no effect and 100 is complete control): 100 | Kochia plant response rating (kochia; [13]): 0 | Plant response rating, Kochia (kochia; [14]): 0 | Plant response rating, Ducksalad (duck salad; [8]): 0 | Plant response rating, Ducksalad (duck salad; [9]): 0 | Plant response rating, Ducksalad (duck salad; [10]): 80 | Plant response rating, Ducksalad (duck salad; [11]): 80 | Barnyardgrass plant response rating (barnyardgrass; [6]): 60 | Barnyardgrass plant response rating (barnyardgrass; [7]): 80 | Barnyardgrass plant response rating (barnyardgrass; [12]): 90 | Plant response rating, Barnyardgrass (barnyardgrass; Preemergence, 500 g ai/ha): 100 | Surinam Grass plant response rating (Surinam grass; [13]): 0 | Plant response rating, Surinam Grass (Surinam grass; [14]): 0 | Bromegrass, Downy plant response rating (downy brome; [13]): 0 | Plant response rating, Bromegrass, Downy (downy brome; [14]): 0 | Plant response rating (0 to 100), Bromegrass, Downy (downy brome; Preemergence): 0 | Bromegrass, Downy plant response rating (downy brome; [5]): 0 | Crabgrass, Large plant response rating (crabgrass; [13]): 100 | Plant response rating, Crabgrass, Large (crabgrass; [14]): 80 | Plant response rating (0 to 100), Crabgrass, Large (crabgrass; Preemergence): 100 | Cocklebur plant response rating (cocklebur; [13]): 0 | Plant response rating, Cocklebur (cocklebur; [14]): 0 | Plant response rating (0 to 100), Cocklebur (cocklebur; Preemergence): 0 | Cocklebur plant response rating (cocklebur; [5]): 0 | Velvetleaf plant response rating (velvetleaf [1]; [6]): 0 | Velvetleaf plant response rating (velvetleaf [1]; [7]): 40 | Velvetleaf plant response rating (velvetleaf [1]; [12]): 0 | Plant response rating, Velvetleaf (velvetleaf [1]; Preemergence, 500 g ai/ha): 40 | Oat, Wild plant response rating (wild oat; [13]): 0 | Plant response rating, Oat, Wild (wild oat; [14]): 0 | Lambsquarters plant response rating (lambsquarters; [13]): 0 | Plant response rating, Lambsquarters (lambsquarters; [14]): 0 | Foxtail, Giant plant response rating (giant foxtail; [13]): 85 | Plant response rating, Foxtail, Giant (giant foxtail; [14]): 65 | Plant response rating (0 to 100), Foxtail, Giant (giant foxtail; Preemergence): 100 | Plant response rating, Rice (rice; [8]): 30 | Plant response rating, Rice (rice; [9]): 40 | Plant response rating, Rice (rice; [10]): 80 | Plant response rating, Rice (rice; [11]): 80 | Velvetleaf plant response rating (velvetleaf [2]; [13]): 0 | Plant response rating, Velvetleaf (velvetleaf [2]; [14]): 0 | Plant response rating, Foxtail, Green (green foxtail; [14]): 20 | Plant response rating (0 to 100), Foxtail, Green (green foxtail; Preemergence): 100 | Ragweed plant response rating (common ragweed; [13]): 0 | Plant response rating, Ragweed (common ragweed; [14]): 0 | Nightshade plant response rating (eastern black nightshade; [13]): 60 | Plant response rating, Nightshade (eastern black nightshade; [14]): 60
